Assays:
Assay type in all cases: biochemical
[1] = target: T1, K-Ras G12D (Homo sapiens, UniProt P01116, G12D); experiment: PPI-HTRF assay, K-Ras G12D / SOS1 interaction; details: HTRF, K-Ras G12D; read-out: PPI-HTRF-5 nM (K-Ras G12D IC50)
T1 construct: made in house; host or cells: E. coli, e.g. BL21 (DE3)
Description: (§1) This assay can be also used to assess a selective inhibition or reduction of signaling output of a mutant Ras protein relative to a wildtype, or relative to a different mutant Ras protein. For example, the equilibrium interaction of wildtype Kras or K-Ras mutant (e.g., wildtype or a mutant thereof) with SOS1 (e.g., hSOS1) can be assessed as a proxy or an indication for a subject compound's ability to bind and inhibit Ras protein. HTRF assay detects from (i) a fluorescence resonance energy transfer (FRET) donor (e.g., antiGST-Europium) that is bound to GST-tagged K-Ras mutant to (ii) a FRET acceptor (e.g., anti-6His-XL665) bound to a His-tagged hSOS1.
(§2) The assay buffer can contain ˜5 mM HEPES pH 7.4, ˜150 mM NaCl, ˜1 mM DTT, 0.05% BSA and 0.0025% (v/v) Igepal. A Ras working solution is prepared in an assay buffer containing typically a suitable amount of the protein construct (e.g., GST-tagged K-Ras mutant) and the FRET donor (e.g., antiGST-Eu(K) from Cisbio, France). A SOS1 working solution is prepared in an assay buffer containing suitable amount of the protein construct (e.g., His-hSOS1) and the FRET acceptor (e.g., anti-6His-XL665 from Cisbio, France). A suitable amount of the protein construct will depend on the range of activity or range of IC50 values being detected or under investigation. For detecting IC50 within a range of 500 nM, the protein constructs of the same range of molarity can be utilized.
(§3) A fixed volume of DMSO with or without test compound is transferred into a 384-well plate. Ras working solution is added to all wells of the test plate. SOS1 working solution is added to all wells except for those that are subsequently filled the inhibitor control solution. Upon incubation for about 10 minutes or longer, the fluorescence is measured with a M1000Pro plate reader (Tecan) using HTRF detection (excitation 337 nm, emission 1: 620 nm, emission 2: 665 nm). Compounds are tested in duplicate at different concentrations (for example, 10 μM, 2.5 μM, 0.63 μM, 0.16 μM, 0.04 μM, 0.01 μM test compound). The ratiometric data (i.e., emission 2 divided by emission 1) is used to calculate IC50 values against Ras using GraphPad Prism (GraphPad software). Following this general procedure, samples are tested with or without a subject compound disclosed herein including compounds exemplified in Table 1 to assess their abilities to inhibit a mutant K-Ras relative to another K-Ras (e.g., different mutant or wildtype). Signaling output measured in terms of IC50 values can be obtained, a ratio of IC50 against one mutant relative to another mutant can be calculated. For instance, a selective reduction of K-Ras G12D signaling output can be evidenced by a ratio greater than one. In particular, a selective reduction of K-Ras G12D signaling relative to K-Ras WT signaling is evidenced if the ratio of IC50 (against K-Ras WT) to IC50 (against K-Ras G12D) is greater than 1.

[2] = target: T2, wildtype K-Ras (Homo sapiens, UniProt P01116); experiment: PPI-HTRF assay, wildtype K-Ras / SOS1 interaction; details: HTRF, K-Ras wt; read-out: PPI-HTRF-5 nM (K-Ras wt IC50)
T2 construct: made in house; host or cells: E. coli, e.g. BL21 (DE3)
T2 sequence (P01116 1-188 isoform P01116-2): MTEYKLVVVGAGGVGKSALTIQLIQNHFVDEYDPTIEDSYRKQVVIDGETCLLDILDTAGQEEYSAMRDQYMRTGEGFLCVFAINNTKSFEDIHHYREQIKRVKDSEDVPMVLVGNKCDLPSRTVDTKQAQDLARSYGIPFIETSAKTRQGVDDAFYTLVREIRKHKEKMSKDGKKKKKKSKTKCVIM
Description: as §1, §2, §3

[3] = target: T3, K-Ras G12V (Homo sapiens, UniProt P01116, G12V); experiment: PPI-HTRF assay, K-Ras G12V / SOS1 interaction; details: HTRF, K-Ras G12V; read-out: PPI-HTRF-5 nM (K-Ras G12V IC50)
T3 construct: made in house; host or cells: E. coli, e.g. BL21 (DE3)
T3 sequence (P01116 1-188 isoform P01116-2 G12V): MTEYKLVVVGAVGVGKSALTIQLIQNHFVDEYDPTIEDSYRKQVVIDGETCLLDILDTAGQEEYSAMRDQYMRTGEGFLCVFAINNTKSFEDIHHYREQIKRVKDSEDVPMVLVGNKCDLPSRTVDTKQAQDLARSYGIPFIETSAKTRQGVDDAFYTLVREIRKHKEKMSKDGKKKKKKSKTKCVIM
Description: as §1, §2, §3

[4] = target: T4, K-Ras G12S (Homo sapiens, UniProt P01116, G12S); experiment: PPI-HTRF assay, K-Ras G12S / SOS1 interaction; details: read-out: PPI-HTRF-5 nM (K-Ras G12S IC50)
T4 construct: made in house; host or cells: E. coli, e.g. BL21 (DE3)
T4 sequence (P01116 1-188 isoform P01116-2 G12S): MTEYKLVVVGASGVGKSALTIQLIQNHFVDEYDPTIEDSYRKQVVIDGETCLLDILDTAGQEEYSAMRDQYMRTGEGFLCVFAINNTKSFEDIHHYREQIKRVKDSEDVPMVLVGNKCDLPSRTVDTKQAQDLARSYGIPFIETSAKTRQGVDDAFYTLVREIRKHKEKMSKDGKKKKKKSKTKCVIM
Description: as §1, §2, §3

T1 sequence (P01116 1-188 isoform P01116-2 G12D): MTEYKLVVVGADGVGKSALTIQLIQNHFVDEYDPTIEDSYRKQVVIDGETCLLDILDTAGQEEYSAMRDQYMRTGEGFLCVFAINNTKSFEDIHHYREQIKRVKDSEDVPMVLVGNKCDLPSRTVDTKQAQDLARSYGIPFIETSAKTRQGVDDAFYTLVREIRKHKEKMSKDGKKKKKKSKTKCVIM

Row | IC50 [1] [µM] | IC50 [2] [µM] | IC50 [3] [µM] | IC50 [4] [µM] | SMILES
1 | > 5 | > 5 | > 5 | > 5 | N#Cc1c(N)sc2c(F)ccc(-c3c(Cl)c4c5c(nc(OC[C@@]67CCCN6C[C@H](F)C7)nc5c3F)N3[C@H](CO4)C[C@@H]3COC(F)F)c12 [compound 210, 2-amino-4-((8aS,10R)-6-chloro-10-((difluoromethoxy)methyl)-4-fluoro-2-(((2R,7aS)-2-fluorotetrahydro-1H-pyrrolizin-7a(5H)-yl)methoxy)-8,8a,9,10-tetrahydroazeto[2′,1′:3,4][1,4]oxazepino [5,6,7-de]quinazolin-5-yl)-7-fluorobenzo[b]thiophene-3-carbonitrile]
2 | < 5 | < 5 | < 5 | < 5 | CCN[C@@H]1CC[C@H]2COc3c(Cl)c(-c4ccc(F)c5sc(N)c(C#N)c45)c(F)c4nc(OC[C@@]56CCCN5C[C@H](F)C6)nc(c34)N2C1 [compound 119, 2-amino-4-((5aS,8R)-3-chloro-8-(ethylamino)-1-fluoro-12-(((2R,7aS)-2-fluorotetrahydro-1H-pyrrolizin-7a(5H)-yl)methoxy)-5,5a,6,7,8,9-hexahydropyrido[2′,1′:3,4][1,4]oxazepino [5,6,7-de]quinazolin-2-yl)-7-fluorobenzo[b]thiophene-3-carbonitrile]
3 | < 5 | < 5 | < 5 | < 5 | CN1c2nc(OC[C@@]34CCCN3C[C@H](F)C4)nc3c(F)c(-c4ccc(F)c5sc(N)c(C#N)c45)c(Cl)c(c23)OCC2OCCCC21 (stereo partly drawn) [compound 199, 2-amino-4-(6-chloro-4-fluoro-2-(((2R,7aS)-2-fluorotetrahydro-1H-pyrrolizin-7a(5H)-yl)methoxy)-13-methyl-8,8a,11,12,12a,13-hexahydro-10H-pyrano[3′,2′:6,7][1,5]oxazocino[4,3,2-de]quinazolin-5-yl)-7-fluorobenzo[b]thiophene-3-carbonitrile]
4 | < 5 | < 5 | < 5 | < 5 | CN1c2nc(OC[C@@]34CCCN3C[C@H](F)C4)nc3c(F)c(-c4ccc(F)c5sc(N)c(C#N)c45)c(Cl)c(c23)OCC2COCCC21 (stereo partly drawn) [compound 198, 2-amino-4-(6-chloro-4-fluoro-2-(((2R,7aS)-2-fluorotetrahydro-1H-pyrrolizin-7a(5H)-yl)methoxy)-13-methyl-8a,9,11,12,12a,13-hexahydro-8H-pyrano[4′,3′:6,7][1,5]oxazocino[4,3,2-de]quinazolin-5-yl)-7-fluorobenzo[b]thiophene-3-carbonitrile]
